Our source for the IC50 values is US11078168B2, “Substituted N-hydroxyamidinoheterocycles as modulators of indoleamine 2,3-dioxygenase” (PHENEX DISCOVERY VERWALTUNGS-GMBH, priority 2016, dated 2021).

This experiment addresses T1, Indoleamine 2,3-dioxygenase (Homo sapiens, UniProt P14902).
T1 construct: endogenous in cells; host or cells: SKOV-3 (ATCC HTB-77), stimulated with interferon gamma
In words: SKOV-3 cellular Indoleamine 2,3-dioxygenase assay. The note with it: SKOV-3 cells, 50 ng/ml Interferon gamma, 100 μM L-Tryptophan, 24 hours, N-Formylkynurenin fluorescence detection; read-out: cell based activity. The protocol:
SKOV-3 cellular Indoleamine 2,3-dioxygenase assay
SKOV-3 cells were obtained from the American Type Culture Collection (ATCC® HTB-77™) and maintained in McCoy's medium (Pan Biotech) supplemented with 10% fetal bovine serum and 1% Penicilin/Streptomycin. Cells were kept at 37° C. in a humidified incubator with 5% CO2. For assay preparation, cells were seeded at a density of 2*10^5/ml into black clear bottom 96 well plates in 100 μl medium/well supplemented with 50 ng/ml Interferon gamma (eBioscience, Thermo Fisher Scientific). After cells fully adhered to the plate, dilution series of compounds were added in medium containing additional L-Tryptophan to a final L-Tryptophan concentration of 100 μM. The cells were incubated for 24 hours. Detection of produced N-Formylkynurenin was performed by addition of 3-Methylpiperidine to a final concentration of 200 mM. The plates were sealed and heated to 65° C. for 20 minutes in a water bath. After cooling the fluorescence of each well was recorded with a Victor™X4 (PerkinElmer) plate reader at an emission wavelength of 535 nm and excitation at 405 nm (Tomek et al.; Anal Bioanal Chem (2013) 405:2515-2524., Tomek et al.; Biochim Biophys Acta. 2015 September; 1850(9):1772-80).

pIC50: −log10 of the molar value.

T1 sequence (P14902 whole entry): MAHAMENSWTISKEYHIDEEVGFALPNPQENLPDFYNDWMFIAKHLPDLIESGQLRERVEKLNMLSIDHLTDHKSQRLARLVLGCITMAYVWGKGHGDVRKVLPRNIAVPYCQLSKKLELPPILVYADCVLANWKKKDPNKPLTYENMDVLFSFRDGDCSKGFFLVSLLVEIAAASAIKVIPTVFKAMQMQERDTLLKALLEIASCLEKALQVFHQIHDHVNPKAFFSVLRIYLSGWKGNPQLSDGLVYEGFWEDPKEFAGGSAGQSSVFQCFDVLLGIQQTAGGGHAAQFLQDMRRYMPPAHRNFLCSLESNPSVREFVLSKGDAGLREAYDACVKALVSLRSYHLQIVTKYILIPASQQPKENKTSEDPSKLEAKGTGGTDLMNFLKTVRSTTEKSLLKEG

Consider `NS(=O)(=O)CCC(=O)NCCSc1nonc1C(=NO)Nc1ccc(F)c(C(F)(F)F)c1` [107/35], for which the pIC50 is more than 7.00. As for `NS(=O)(=O)CCC(=O)NCCSc1nonc1C(=NO)Nc1ccc(F)c(C(F)F)c1` [107/36], the figure is more than 7.00; as for `NC(=O)CCC(=O)NCCSc1nonc1C(=NO)Nc1ccc(F)c(C(F)F)c1` [107/37], more than 7.00; as for `CS(=O)(=O)CCC(=O)NCCSc1nonc1C(=NO)Nc1ccc(F)c(C(F)F)c1` [107/38], more than 7.00.

Take `CS(=O)(=O)CCC(=O)NCCSc1nonc1C(=NO)Nc1cccc(Cl)c1` [107/39]: the pIC50 is more than 7.00. Under `CS(=O)(=O)CCC(=O)NCCSc1nonc1C(=NO)Nc1cccc(Br)c1` [107/40] stands more than 7.00; under `CS(=O)(=O)CCC(=O)NCCSc1nonc1/C(=N/O)Nc1ccc(F)c(Br)c1` [107/41], more than 7.00.

Turning to `O=C(O)C1CN(CCSc2nonc2C(=NO)Nc2ccc(F)c(C(F)F)c2)C1` [108/1], the pIC50 was less than 6.00.

`O=C(O)CC1CN(CCSc2nonc2C(=NO)Nc2ccc(F)c(C(F)F)c2)C1` [108/2]: the pIC50 was 6.00 to 7.00. Turning to `NS(=O)(=O)NCC[S+]([O-])c1nonc1C(=NO)Nc1ccc(F)c(Cl)c1` (centres unmarked) [109/1], the pIC50 is less than 6.00.

Consider `[O-][S+](c1nonc1C(=NO)Nc1ccc(F)c(Br)c1)C1CC1` (centres unmarked) [109/2], for which the pIC50 was 6.00 to 7.00. As for `[O-][S+](CC(F)(F)F)c1nonc1C(=NO)Nc1ccc(F)c(Br)c1` (centres unmarked) [109/3], the figure is less than 6.00; as for `O=C(NCCSc1nonc1C(=NO)Nc1ccc(F)c(Cl)c1)c1n[nH]c(=O)[nH]1` [117/1], 6.00 to 7.00; as for `O=C(NCCSc1nonc1C(=NO)Nc1ccc(F)c(Cl)c1)c1ccnc2nn[nH]c12` [117/2], less than 6.00. Under `Cn1nc(C(=O)NCCSc2nonc2C(=NO)Nc2ccc(F)c(Cl)c2)[nH]c1=O` [117/3] stands more than 7.00; under `O=C(NCCSc1nonc1C(=NO)Nc1ccc(F)c(Cl)c1)c1ccc(C(O)(C(F)(F)F)C(F)(F)F)cc1` [117/4], 6.00 to 7.00; under `O=C(NCCSc1nonc1C(=NO)Nc1ccc(F)c(Cl)c1)c1ccc(C(=O)O)nc1` [117/5], less than 6.00. As for `O=C(NCCSc1nonc1C(=NO)Nc1ccc(F)c(Cl)c1)c1nnc(C(F)(F)F)[nH]1` [117/6], the figure is 6.00 to 7.00. For `Cc1nnc(C(=O)NCCSc2nonc2C(=NO)Nc2ccc(F)c(Cl)c2)o1` [117/7], the pIC50 is more than 7.00. Under `NS(=O)(=O)c1ccc(C(=O)NCCSc2nonc2C(=NO)Nc2ccc(F)c(Cl)c2)cc1` [117/8] stands more than 7.00; under `NC(=O)c1ccc(C(=O)NCCSc2nonc2C(=NO)Nc2ccc(F)c(Cl)c2)cc1` [117/9], more than 7.00; under `CS(=O)(=O)Nc1ccc(C(=O)NCCSc2nonc2C(=NO)Nc2ccc(F)c(C(F)F)c2)cc1` [117/10], more than 7.00. As for `O=C(NCCSc1nonc1C(=NO)Nc1ccc(F)c(Cl)c1)c1ccc(NS(=O)(=O)C(F)(F)F)nc1` [117/11], the figure is less than 6.00; as for `NS(=O)(=O)CC(=O)NCCSc1nonc1/C(=N/O)Nc1ccc(F)c(C(F)F)c1` [117/12], more than 7.00. Under `NS(=O)(=O)CC(=O)NCCSc1nonc1/C(=N/O)Nc1cccc(C(F)(F)F)c1` [117/13] stands more than 7.00.

As for `NS(=O)(=O)c1ccc(C(=O)NCCSc2nonc2C(=NO)Nc2ccc(F)c(C(F)F)c2)cc1` [117/14], the pIC50 was more than 7.00.

Turning to `NS(=O)(=O)c1ccc(C(=O)NCCSc2nonc2C(=NO)Nc2cccc(C(F)F)c2)cc1` [117/15], the pIC50 is more than 7.00.

In the case of `Cn1nc(C(=O)NCCSc2nonc2C(=NO)Nc2ccc(F)c(C(F)(F)F)c2)[nH]c1=O` [117/16], the pIC50 is more than 7.00. Under `Cn1nc(C(=O)NCCSc2nonc2C(=NO)Nc2ccc(F)c(C(F)F)c2)[nH]c1=O` [117/17] stands 6.00 to 7.00; under `Cn1nc(C(=O)NCCSc2nonc2C(=NO)Nc2cccc(C(F)(F)F)c2)[nH]c1=O` [117/18], 6.00 to 7.00; under `NS(=O)(=O)CC(=O)NCCSc1nonc1/C(=N/O)Nc1cccc(C(F)F)c1` [117/19], more than 7.00.

Regarding `CC(C)(C)OC(=O)NC1(CC(=O)NCCSc2nonc2C(=NO)Nc2ccc(F)c(C(F)F)c2)COC1` [117/20], the pIC50 is more than 7.00. Regarding `NS(=O)(=O)C1(C(=O)NCCSc2nonc2C(=NO)Nc2ccc(F)c(C(F)F)c2)CC1` [117/21], the pIC50 is more than 7.00. Under `NS(=O)(=O)CC(=O)NCCSc1nonc1C(=NO)Nc1cc(Br)c(F)cc1F` [117/22] stands more than 7.00; under `NS(=O)(=O)CC(=O)NCCSc1nonc1C(=NO)Nc1ccc(F)c(Br)c1F` [117/23], more than 7.00; under `NS(=O)(=O)CC(=O)NCCSc1nonc1C(=NO)Nc1cc(F)c(F)c(Br)c1` [117/24], more than 7.00. Under `NC(=O)CC(=O)NCCSc1nonc1C(=NO)Nc1cccc(C(F)(F)F)c1` [119/1] stands more than 7.00; under `NC(=O)CC(=O)NCCSc1nonc1C(=NO)Nc1cccc(C(F)F)c1` [119/2], more than 7.00.

Consider `NC(=O)CS(=O)(=O)NCCSc1nonc1C(=NO)Nc1ccc(F)c(C(F)F)c1` [119/3], for which the pIC50 was more than 7.00. As to `NC(=O)CS(=O)(=O)NCCSc1nonc1C(=NO)Nc1cccc(C(F)F)c1` [119/4], the pIC50 was more than 7.00. Under `NC(=O)CCS(=O)(=O)NCCSc1nonc1C(=NO)Nc1ccc(F)c(C(F)F)c1` [119/5] stands more than 7.00; under `NC(=O)CNS(=O)(=O)NCCSc1nonc1C(=NO)Nc1ccc(F)c(C(F)F)c1` [119/6], more than 7.00. As for `CS(=N)(=O)NCCSc1nonc1C(=NO)Nc1ccc(F)c(C(F)F)c1` (centres unmarked) [120/1], the figure is more than 7.00; as for `O=C(NCCSc1nonc1C(=NO)Nc1ccc(F)c(C(F)(F)F)c1)C1(O)CNC1` [123/1], 6.00 to 7.00. As for `COC1(C(=O)NCCSc2nonc2C(=NO)Nc2ccc(F)c(C(F)F)c2)CNC1` [123/2], the figure is more than 7.00; as for `CC1(C(=O)NCCSc2nonc2/C(=N/O)Nc2ccc(F)c(C(F)F)c2)CCN1` (centres unmarked) [123/3], more than 7.00; as for `O=C(NCCSc1nonc1C(=NO)Nc1ccc(F)c(C(F)F)c1)C1CCN1` (centres unmarked) [123/4], more than 7.00. On to `CC1(C(=O)NCCSc2nonc2C(=NO)Nc2ccc(F)c(C(F)F)c2)CNC1` [123/5], for which the pIC50 was more than 7.00. On to `O=C(NCCSc1nonc1C(=NO)Nc1ccc(F)c(C(F)F)c1)C1(F)CNC1` [123/6], for which the pIC50 was more than 7.00. With `NC(CC(=O)NCCSc1nonc1C(=NO)Nc1ccc(F)c(C(F)F)c1)C(F)(F)F` (centres unmarked) [123/7], the pIC50 was more than 7.00.

On to `CS(=N)(=O)CC(=O)NCCSc1nonc1C(=NO)Nc1ccc(F)c(C(F)F)c1` (centres unmarked) [127/1], for which the pIC50 was more than 7.00. As for `CS(=N)(=O)CC(=O)NCCSc1nonc1C(=NO)Nc1ccc(F)c(C(F)(F)F)c1` (centres unmarked) [127/2], the figure is more than 7.00. As for `CS(=N)(=O)CC(=O)NCCSc1nonc1C(=NO)Nc1cccc(Cl)c1` (centres unmarked) [127/3], the figure is more than 7.00. On to `CS(=N)(=O)CC(=O)NCCSc1nonc1C(=NO)Nc1cccc(Br)c1` (centres unmarked) [127/4], for which the pIC50 is more than 7.00.

For `NS(=O)(=O)NCC(=O)NCCSc1nonc1C(=NO)Nc1ccc(F)c(C(F)(F)F)c1` [128/1], the pIC50 was more than 7.00.

Consider `CS(=O)(=O)NCC(=O)NCCSc1nonc1C(=NO)Nc1ccc(F)c(C(F)F)c1` [128/2], for which the pIC50 was more than 7.00.

For the compound `CC(=O)N1CC(O)(C(=O)NCCSc2nonc2C(=NO)Nc2ccc(F)c(C(F)F)c2)C1` [128/3], the pIC50 was more than 7.00. Under `NC(=O)N1CC(O)(C(=O)NCCSc2nonc2C(=NO)Nc2ccc(F)c(C(F)F)c2)C1` [128/4] stands 6.00 to 7.00; under `CS(=O)(=O)N1CC(O)(C(=O)NCCSc2nonc2C(=NO)Nc2ccc(F)c(C(F)F)c2)C1` [128/5], more than 7.00. As for `NS(=O)(=O)N1CC(O)(C(=O)NCCSc2nonc2C(=NO)Nc2ccc(F)c(C(F)F)c2)C1` [128/6], the figure is more than 7.00. As for `NS(=O)(=O)N1CC(C(=O)NCCSc2nonc2C(=NO)Nc2ccc(F)c(C(F)F)c2)C1` [128/7], the figure is more than 7.00; as for `CS(=O)(=O)NCCOc1nonc1/C(=N/O)Nc1ccc(F)c(Br)c1` [Example 1, N-(3-Bromo-4-fluorophenyl)-N′-hydroxy-4-(2-(methylsulfonamido)ethoxy)-1,2,5-oxadiazole-3-carboximidamide], more than 7.00; as for `Nc1c(NCCOc2nonc2C(=NO)Nc2ccc(F)c(Cl)c2)c(=O)c1=O` [Example 2, 4-(2-((2-Amino-3,4-dioxocyclobut-1-en-1-yl)amino)ethoxy)-N-(3-chloro-4-fluorophenyl)-N′-hydroxy-1,2,5-oxadiazole-3-carboximidamide], more than 7.00. Take `O=C(NCCOc1nonc1C(=NO)Nc1ccc(F)c(Cl)c1)C1COCCN1` (centres unmarked) [Example 3, N-(2-((4-(N-(3-Chloro-4-fluorophenyl)-N′-hydroxycarbamimidoyl)-1,2,5-oxadiazol-3-yl)oxy)ethyl)morpholine-3-carboxamide]: the pIC50 was 6.00 to 7.00. As to `NC(=O)C(=O)NCCOc1nonc1C(=NO)Nc1ccc(F)c(Cl)c1` [Example 4, N^1-(2-((4-(N-(3-Chloro-4-fluorophenyl)-N′-hydroxycarbamimidoyl)-1,2,5-oxadiazol-3-yl)oxy)ethyl)oxalamide], the pIC50 was 6.00 to 7.00.
